The text below walks through data of US9505728B2, “Triazolone compounds and uses thereof” (INCEPTION 2, INC., priority 2012, dated 2016).

By pIC50 is commonly meant −log10 of the IC50, conventionally taken in molar units.

SMILES strings stand for the structures. pIC50: −log10 of the molar value.

For the experiment, the target named is T1, Human PPARα (Homo sapiens, UniProt Q07869).
T1 construct: host or cells: proprietary non-human mammalian cells
T1 sequence (Q07869 1-468): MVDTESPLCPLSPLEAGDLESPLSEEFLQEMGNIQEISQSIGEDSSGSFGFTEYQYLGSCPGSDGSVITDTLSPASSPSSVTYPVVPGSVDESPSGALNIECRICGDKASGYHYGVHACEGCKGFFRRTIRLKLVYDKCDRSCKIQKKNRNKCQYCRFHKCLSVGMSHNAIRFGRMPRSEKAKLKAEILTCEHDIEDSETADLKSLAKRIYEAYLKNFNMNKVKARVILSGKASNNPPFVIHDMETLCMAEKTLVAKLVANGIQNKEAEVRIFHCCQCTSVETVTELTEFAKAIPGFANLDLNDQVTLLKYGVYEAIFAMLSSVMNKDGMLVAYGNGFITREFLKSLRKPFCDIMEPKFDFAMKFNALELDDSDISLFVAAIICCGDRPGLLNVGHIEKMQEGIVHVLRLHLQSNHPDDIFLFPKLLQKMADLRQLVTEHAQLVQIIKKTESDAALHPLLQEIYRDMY
The experiment can be described thus: Human PPARα Reporter Assay (luciferase). The class given is cell-based. To be noted: human PPARα reporter cells, overnight incubation, antagonism; read-out: Luciferase IC50. On the procedure:
Human PPARα Reporter Assay
The screening of test compounds for agonist or antagonist activities against human PPARα receptors was performed using a commercial kit, Human PPARα Reporter Assay System (Indigo Biosciences, Cat. #IB00111).
This nuclear receptor assay system utilizes proprietary non-human mammalian cells engineered to provide constitutive, high-level expression of Human PPARα. Because these cells incorporate a PPARα-responsive luciferase reporter gene, quantifying expressed luciferase activity provides a sensitive surrogate measure of PPARα activity in the treated cells. The primary application of this reporter assay system is in the screening of test samples to quantify any functional activity, either agonist or antagonist, that they may exert against human PPARα.
Briefly, reporter cells are dispensed into wells of the assay plate and then immediately dosed with test compounds. Following an overnight incubation, the treatment media is discarded and Luciferase Detection Reagent (LDR) is added. The intensity of light emission from the ensuing luciferase reaction provides a sensitive measure that is directly proportional to the relative level of PPARα activation in the reporter cells.
For `CCn1c(CCCc2ccc(-c3cc(CC(=O)O)ccc3F)cc2)nn(Cc2ccc(C(C)(C)C)cc2)c1=O` [Example 19, 2-(4′-(3-(1-(4-(tert-Butyl)benzyl)-4-ethyl-5-oxo-4,5-dihydro-1H-1,2,4-triazol-3-yl)propyl)-6-fluoro-[1,1′-biphenyl]-3-yl)acetic acid], the pIC50 is 6.10.

`CCn1c(CCCc2ccc(-c3ccc(CC(=O)O)c(OC)c3)cc2)nn(Cc2ccc(C(C)(C)C)cc2)c1=O` [Example 199, 2-(4′-(3-(1-(4-(tert-Butyl)benzyl)-4-ethyl-5-oxo-4,5-dihydro-1H-1,2,4-triazol-3-yl)propyl)-3-methoxy-[1,1′-biphenyl]-4-yl)acetic acid]: the pIC50 is 6.53.

Consider `CCOc1ccc(-c2ccc(CCCc3nn(Cc4ccc(C(C)(C)C)cc4)c(=O)n3CC)cc2)cc1C1(C(=O)O)CC1` [Example 122, 1-(4′-(3-(1-(4-(tert-Butyl)benzyl)-4-ethyl-5-oxo-4,5-dihydro-1H-1,2,4-triazol-3-yl)propyl)-4-ethoxy-[1,1′-biphenyl]-3-yl)cyclopropanecarboxylic acid], for which the pIC50 is 6.73.

On to `CCn1c(CCCc2ccc(-c3ccc(OC)c(NS(=O)(=O)c4ccc(OC)nc4)n3)cc2)nn(Cc2ccc(C(C)(C)C)cc2)c1=O` [Example 114, 1-{[4-(tert-Butyl)phenyl]methyl}-4-ethyl-3-{3-[4-(5-methoxy-6-{[(6-methoxy(3-pyridyl))sulfonyl]amino}(2-pyridyl))phenyl]propyl}-1,2,4-triazolin-5-one], for which the pIC50 was 8.15.

Consider `CCn1c(CCCc2ccc(-c3ccc(S(=O)(=O)NCc4ccccc4)cc3)cc2)nn(Cc2ccc(C(C)(C)C)cc2)c1=O` [Example 99, N-benzyl-4′-(3-(1-(4-(tert-butyl)benzyl)-4-ethyl-5-oxo-4,5-dihydro-1H-1,2,4-triazol-3-yl)propyl)-[1,1′-biphenyl]-4-sulfonamide], for which the negative logarithm of the IC50 (pIC50) is 6.28.

Turning to `CCn1c(CCCc2ccc(-c3cc(CC(=O)O)cc(OC)c3)cc2)nn(Cc2ccc(C(C)(C)C)cc2)c1=O` [Example 194, 2-(3-{4-[3-(1-{[4-(tert-Butyl)phenyl]methyl}-4-ethyl-5-oxo(1,2,4-triazolin-3-yl))propyl]phenyl}-5-methoxyphenyl)acetic acid], the pIC50 was 7.08.

`CCn1c(CCC(F)(F)c2ccc(-c3ccc(C4(O)COC4)cc3)cc2)nn(Cc2ccc(C(C)(C)C)cc2)c1=O` [Example 196, 1-(4-(tert-Butyl)benzyl)-3-(3,3-difluoro-3-(4′-(3-hydroxyoxetan-3-yl)-[1,1′-biphenyl]-4-yl)propyl)-4-ethyl-1H-1,2,4-triazol-5(4H)-one]: the pIC50 is 6.96.

Turning to `CCCc1ccc(S(=O)(=O)Nc2ccc(-c3ccc(CCCc4nn(Cc5ccc(C(C)(C)C)cc5)c(=O)n4CC)cc3)nc2)cc1` [Example 71, 1-{[4-(tert-Butyl)phenyl]methyl}-4-ethyl-3-{3-[4-(5-{[(4-propylphenyl)sulfonyl]amino}(2-pyridyl))phenyl]propyl}-1,2,4-triazolin-5-one], the pIC50 is 6.06.

Regarding `CCCOc1ccc(-c2ccc(CCCc3nn(Cc4ccc(C(C)(C)C)cc4)c(=O)n3CC)cc2)cc1CC(=O)O` [Example 94, 2-(4′-(3-(1-(4-(tert-Butyl)benzyl)-4-ethyl-5-oxo-4,5-dihydro-1H-1,2,4-triazol-3-yl)propyl)-4-propoxy-[1,1′-biphenyl]-3-yl)acetic acid], the pIC50 was 7.80.

As to `CCn1c(CCCc2ccc(-c3ccc(OC)c(C4(C(=O)O)CCC4)c3)cc2)nn(Cc2ccc(C(C)(C)C)cc2)c1=O` [Example 133, 1-(4′-(3-(1-(4-(tert-Butyl)benzyl)-4-ethyl-5-oxo-4,5-dihydro-1H-1,2,4-triazol-3-yl)propyl)-4-methoxy-[1,1′-biphenyl]-3-yl)cyclobutanecarboxylic acid], the pIC50 is 6.22.

As to `CCn1c(CCCc2ccc(-c3ccc(OC)c(CC(=O)O)c3)c(OC)c2)nn(Cc2ccc(C(C)(C)C)cc2)c1=O` [Example 159, 2-(4′-(3-(1-(4-(tert-Butyl)benzyl)-4-ethyl-5-oxo-4,5-dihydro-1H-1,2,4-triazol-3-yl)propyl)-2′,4-dimethoxy-[1,1′-biphenyl]-3-yl)acetic acid], the pIC50 is 6.39.

On to `CCn1c(CCCc2ccc(-c3cccc(NC(=O)NS(=O)(=O)c4ccccc4)n3)cc2)nn(Cc2ccc(C(C)(C)C)cc2)c1=O` [Example 154, N-((6-(4-(3-(1-(4-(tert-Butyl)benzyl)-4-ethyl-5-oxo-4,5-dihydro-1H-1,2,4-triazol-3-yl)propyl)phenyl)pyridin-2-yl)carbamoyl)benzenesulfonamide], for which the pIC50 was 6.62.

On to `CCn1c(CCCc2ccc(-c3ccc(NS(=O)(=O)c4ccc(Cl)cc4)cn3)cc2)nn(Cc2ccc(C(C)(C)C)cc2)c1=O` [Example 90, 1-{[4-(tert-Butyl)phenyl]methyl}-3-{3-[4-(5-{[(4-chlorophenyl)sulfonyl]amino}(2-pyridyl))phenyl]propyl}-4-ethyl-1,2,4-triazolin-5-one], for which the pIC50 is 6.31.

Take `CCn1c(CCCc2ccc(-c3cccc(N)n3)cc2)nn(Cc2ccc(C(C)(C)C)cc2)c1=O` [Example 3, 3-(3-(4-(6-Aminopyridin-2-yl)phenyl)propyl)-1-(4-(tert-butyl)benzyl)-4-ethyl-1H-1,2,4-triazol-5(4H)-one]: the pIC50 was 6.57.

As for `CCn1c(CCCc2ccc(-c3ccc(OC)c(CNC)c3)cc2)nn(Cc2ccc(C(C)(C)C)cc2)c1=O` [Example 180, 1-{[4-(tert-Butyl)phenyl]methyl}-4-ethyl-3-[3-(4-{4-methoxy-3-[(methylamino)methyl]phenyl}phenyl)propyl]-1,2,4-triazolin-5-one], the pIC50 is 6.19.

Take `CCn1c(CCCc2ccc(-c3ccc(C)c(N)c3)cc2)nn(Cc2ccc(C(C)(C)C)cc2)c1=O` [Example 149, 3-(3-(3′-Amino-4′-methyl-[1,1′-biphenyl]-4-yl)propyl)-1-(4-(tert-butyl)benzyl)-4-ethyl-1H-1,2,4-triazol-5(4H)-one]: the pIC50 was 6.79.

For the compound `CCn1c(CCCc2ccc(-c3ccc(C(F)(F)F)c(N)c3)cc2)nn(Cc2ccc(C(C)(C)C)cc2)c1=O` [Example 148, 3-(3-(3′-Amino-4′-(trifluoromethyl)-[1,1′-biphenyl]-4-yl)propyl)-1-(4-(tert-butyl)benzyl)-4-ethyl-1H-1,2,4-triazol-5(4H)-one], the pIC50 is 6.62.

As to `CCn1c(CCCc2ccc(-c3ccc(C4(O)COC4)cc3)cc2)nn(Cc2ccc(C(C)(C)C)cc2)c1=O` [Example 174, 1-(4-(tert-Butyl)benzyl)-4-ethyl-3-(3-(4′-(3-hydroxyoxetan-3-yl)-[1,1′-biphenyl]-4-yl)propyl)-1H-1,2,4-triazol-5(4H)-one], the pIC50 is 6.84.

`CCn1c(CCC(F)(F)c2ccc(-c3ccc(OC)c(CC(=O)O)c3)cc2)nn(Cc2ccc(C(C)(C)C)cc2)c1=O` [Example 163, 2-(4′-(3-(1-(4-(tert-Butyl)benzyl)-4-ethyl-5-oxo-4,5-dihydro-1H-1,2,4-triazol-3-yl)-1,1-difluoropropyl)-4-methoxy-[1,1′-biphenyl]-3-yl)acetic acid]: the pIC50 is 7.82.

With `CCn1c(CCCc2ccc(-c3cc(C)c(NS(=O)(=O)c4ccccc4)cn3)cc2)nn(Cc2ccc(C(C)(C)C)cc2)c1=O` [Example 126, 1-{[4-(tert-Butyl)phenyl]methyl}-4-ethyl-3-[3-(4-{4-methyl-5-[(phenylsulfonyl)amino](2-pyridyl)}phenyl)propyl]-1,2,4-triazolin-5-one], the pIC50 was 6.70.

Consider `CCn1c(CCCc2ccc(-c3ccc(OC)c(NS(=O)(=O)Cc4ccccc4)n3)cc2)nn(Cc2ccc(C(C)(C)C)cc2)c1=O` [Example 87, 1-{[4-(tert-Butyl)phenyl]methyl}-4-ethyl-3-{3-[4-(5-methoxy-6-{[benzylsulfonyl]amino}(2-pyridyl))phenyl]propyl}-1,2,4-triazolin-5-one], for which the pIC50 was 8.00.

`CCn1c(CCCc2ccc(-c3nccc(NS(=O)(=O)c4ccccc4)n3)cc2)nn(Cc2ccc(C(C)(C)C)cc2)c1=O` [Example 81, N-(2-(4-(3-(1-(4-(tert-Butyl)benzyl)-4-ethyl-5-oxo-4,5-dihydro-1H-1,2,4-triazol-3-yl)propyl)phenyl)pyrimidin-4-yl)benzenesulfonamide]: the pIC50 was 6.90.

Take `CCn1c(CCCc2ccc(-c3ccc(OC)c(C(=O)O)n3)cc2)nn(Cc2ccc(C(C)(C)C)cc2)c1=O` [Example 139, 6-(4-(3-(1-(4-(tert-Butyl)benzyl)-4-ethyl-5-oxo-4,5-dihydro-1H-1,2,4-triazol-3-yl)propyl)phenyl)-3-methoxypicolinic acid]: the pIC50 was 7.05.

Take `CCn1c(CCCc2ccc(-c3ccc(OC)c([C@@H](C)C(=O)O)c3)cc2)nn(Cc2ccc(C(C)(C)C)cc2)c1=O` [Example 141, (R)-2-(4′-(3-(1-(4-(tert-Butyl)benzyl)-4-ethyl-5-oxo-4,5-dihydro-1H-1,2,4-triazol-3-yl)propyl)-4-methoxy-[1,1′-biphenyl]-3-yl)propanoic acid]: the pIC50 was 7.54.
